# Values quoted from earlier work as cited in article PMC3923778 (PLoS Currents, 2014).
# System: HD mouse models
# Set-up: method as in PMID 19281846, PMID 20923867, PMID 19291221, PMID 17184995
# Conditions: ref [5], [7], [14], [15]; cited from earlier work
compound,measurement,value
TP-10,disease progression in HD mouse models,significantly delay disease progression
COc1ccc(C2CNC(=O)C2)cc1OC1CCCC1 (centres unmarked) [rolipram],disease progression in HD mouse models,significantly delay disease progression
